The text below walks through data of patent publication US6700013B2, “Tricyclic fused heterocycle compounds, process for preparing the same and use thereof” (Nippon Suisan Kaisha, Ltd., priority 1999, dated 2004).

Data set [1] concerns actively sensitized guinea pigs. Briefly: Antigen induced airway hypersensitivity, airway reactivity to acetylcholine (PC100ACh). It is filed as in vivo, guinea pig. The settings on record: orally 10 mg/kg 16 hours and 2 hours before the OVA challenge; 22 to 26 hours after challenge. The text has this: Bronchial asthma is a disease characterized by bronchial contraction, airway hypersensitivity and infiltration of inflammatory cells into the airway. Airway hypersensitivity is a condition in which the airway sensitively produces a contraction response to various slight stimuli. Particularly, airway hypersensitivity is considered to be a common feature among patients suffering from allergic bronchial asthma. This experimental system in which actively sensitized guinea pigs are used is useful as a airway hypersensitivity model. […]
The specific airway resistance (sRaw) of wake guinea pigs was measured by the double flow plethysmography with the use of airway resistance measuring equipment (“Pulmos-1”, M.I.P.S., Japan).
[…], from twenty-two to twenty-six hours after the antigen challenge, the guinea pigs were placed in an animal chamber and allowed to inhale a physiological saline and acetylcholine (hereinafter referred to as “ACh”) solutions of 0.0625, 0.125, 0.25, 0.5, 1 and 2 mg/mL , respectively, in the order named, each for one minute until sRaw came to the value at least twice the baseline sRaw (sRaw after the inhalation of the physiological saline). The ACh concentration (hereinafter referred to as “PC100ACh”) necessary for 100% increase in the baseline sRaw was calculated from the concentration of ACh and sRaw-resistance curve. […]

Data set [2] has the same test system. Briefly: Inhibition of immediate (IAR) and late (LAR) asthmatic response, specific airway resistance (sRaw). In kind it is in vivo, guinea pig. The following applies: orally 10 mg/kg one hour before OVA challenge. Here is the method:
It is reported [Pepys, J. and Hutchcroft, B. J., Bronchial provocation tests in etiologic diagnosis and Analysis of asthma, Am. Rev. Respir. Dis., 112, 829-859 (1975)] that when asthmatic patients are allowed to inhale an antigen, immediate asthmatic response (hereinafter referred to as “IAR”) whose peak is 15 to 30 minutes after inhalation is provoked and recovery from this response is within two hours; however, in 60% of the asthmatic patients late asthmatic response (hereinafter referred to as “LAR”) appears 4 to 12 hours after the inhalation of the antigen. […] On the other hand, it is known that when the guinea pigs actively sensitized with an antigen are allowed to inhale the antigen again, biphasic airway responses are caused. Accordingly, as the animal model line of IAR and LAR which are recognized in the above described asthmatic patients, the asthmatic model using guinea pigs is widely used in the evaluation of drugs for asthma and the like. […]
The specific airway resistance (hereinafter referred to as “sRaw”) was measured, 1 minute, 10 minutes and 30 minutes after challenge and furthermore, 1 hour, 2 hours, 3 hours, 4 hours, 5 hours, 6 hours, 7 hours, 8 hours and 24 hours, each time for the duration of 1 minute with the use of airway resistance measuring equipment (“Pulmos-1”, M.I.P.S., Japan). […]

Data set [3] has the same test system. As to the kind of experiment: Number of inflammatory cells in bronchoalveolar lavage fluid after antigen challenge. In kind it is in vivo, guinea pig. The following applies: orally 10 mg/kg one hour before OVA challenge. The procedure:
It is reported [Pepys, J. and Hutchcroft, B. J., Bronchial provocation tests in etiologic diagnosis and Analysis of asthma, Am. Rev. Respir. Dis., 112, 829-859 (1975)] that when asthmatic patients are allowed to inhale an antigen, immediate asthmatic response (hereinafter referred to as “IAR”) whose peak is 15 to 30 minutes after inhalation is provoked and recovery from this response is within two hours; however, in 60% of the asthmatic patients late asthmatic response (hereinafter referred to as “LAR”) appears 4 to 12 hours after the inhalation of the antigen. […] On the other hand, it is known that when the guinea pigs actively sensitized with an antigen are allowed to inhale the antigen again, biphasic airway responses are caused. Accordingly, as the animal model line of IAR and LAR which are recognized in the above described asthmatic patients, the asthmatic model using guinea pigs is widely used in the evaluation of drugs for asthma and the like. Furthermore, it is known that in the IAR and LAR model of guinea pigs, when actively sensitized guinea pigs are exposed to an antigen, infiltration of inflammatory cells into the airway occurs together with the biphasic airway contraction to cause various inflammatory disorders to airway tissues thereby. Therefore, the number of inflammatory cells in the bronchoalveolar lavage fluid is widely used as the index for the infiltration of inflammatory cells into the airway. Each of the above described actions in the IAR and LAR model of guinea pigs was examined with the compounds of the present invention.
Guinea pigs were allowed to inhale a 1% ovalbumin (“OVA”, sigma-Aldrich Co., U.S.A.) physiological saline for 10 minutes daily continuously for 8 days using of an ultrasonic nebulizer (“NE-U12”, Omron, Japan).
One week after the final sensitization, the guinea pigs were allowed to inhale a 2% “OVA” physiological saline for 5 minutes using of the nebulizer. Twenty-four hours and one hour before challenge, the guinea pigs were dosed with metyrapone (10 mg/kg, Sigma-Aldrich Co., U.S.A.) intravenously, and dosed with pyrilamine (10 mg/kg, Sigma-Aldrich Co., U.S.A.) intraperitoneally 30 minutes before challenge.
Each of the test substances (Compounds of Examples 1 and 4) was formed into a suspension with a 0.5% carboxymethyl cellulose sodium salt (hereinafter referred to as “CMC-Na”) solution at a concentration of 2 mg/mL. One hour before challenge, the guinea pigs were orally dosed with the suspension of the test substance with such a dose so as to be 10 mg/kg. For the control group the medium (a 0.5% CMC-Na solution) was used.
Twenty-three to twenty-four hours after the antigen challenge, the abdominal aorta of the guinea pigs was cut under intraperitoneal anesthesia with “Nembutal” (50 mg/kg) to remove blood and the chest was opened. A tube was inserted in the bronchus and fixed thereto and through this tube, 5 mL (37° C.) of a physiological saline was injected and sucked therethrough; this procedure was repeated twice (10 mL in total) and the recovered fluid was regarded as the bronchoalveolar lavage fluid (hereinafter referred to as “BALF”). BALF was centrifuged at 1,100 rmp at 4° C. for 10 minutes to obtain a precipitate (a pellet). This pellet was suspended in 1 mL of a physiological saline and a Turkliquid was added thereto and the number of leukocytes per μL was counted with a leukocyte counter plate. Centrifugation was repeated under the above described conditions and rabbit serum was added to the obtained pellet to prepare a smear preparation. After drying, the preparation was subjected to the May Grunwald-Giemsa stain. The number of leukocytes was counted by a microscope and the ratio to the total number of cells of neutrophils, eosinophils, macrophages and lymphocytes was obtained and the number of cells per μL was calculated on the basis of this ratio.
The obtained test results were shown by mean values and standard deviations and the student's t-test was carried out. […]

The test system of data set [4] is pig tracheal smooth muscles. Briefly: Dilating action on contraction of tracheal smooth muscles (high K+ contraction, Magnus tube). The settings on record: Sus scrofa, 2 h; K+ contraction (72.7 mM); test substance final concentration 10 μM; two hours after addition; tension before addition = 100%; read-out: Relative Contraction Force (%). The source says:
With the use of pig tracheal muscles, the action of the compounds of the present invention on contraction of tracheal muscles has been investigated. The method refers to “Smooth Muscle Manual” (published by Bun'eido Publishing Co.), pp. 125-137. The trachea cartilage mucous membrane and submucous tissue of a pig trachea were removed to prepare a specimen of tracheal smooth muscles having a major diameter of about 10 mm and a minor diameter of about 1.5 mm. This specimen was suspended in a Magnus tube which was aerated with a mixed gas of 95% of oxygen and 5% of carbon dioxide and contained nutrient solution at 37° C. and a load of 0.8 g was applied to this specimen, and after the tension of the specimen was stabilized, the nutrient solution was replaced with a high concentration K^+ solution (72.7 mM) to provoke K^+ contraction. The procedure of replacing the solution in the Magnus tube with the nutrient solution to wash the solution and provoking K^+ contraction with the high concentration K^+ solution was repeated again until the contraction force became constant. When the tension of the K^+ contraction became constant, each of the compounds described in Table 19 (the structural formula of the Comparative Example being described in the right side of the compound of the above described Example 180) was added to the high concentration K^+ solution as the test substance to measure the change in tension. The test substance was dissolved in dimethyl sulfoxide at a predetermined concentration and added to the high concentration K^+ solution in such a manner that the final concentration came to 10 μM. The trachea cartilage mucous membrane and submucous tissue of a pig trachea were removed to prepare a specimen of tracheal smooth muscles having a major diameter of about 10 mm and a minor diameter of about 1.5 mm. This specimen was suspended in a Magnus tube which was aerated with a mixed gas of 95% of oxygen and 5% of carbon dioxide and contained nutrient solution at 37° C. and a load of 0.8 g was applied to this specimen, and after the tension of the specimen was stabilized, the nutrient solution was replaced with a high concentration K+ solution (72.7 mM) to provoke K+ contraction. The procedure of replacing the solution in the Magnus tube with the nutrient solution to wash the solution and provoking K+ contraction with the high concentration K+ solution was repeated again until the contraction force became constant. When the tension of the K+ contraction became constant, each of the compounds described in Table 19 (the structural formula of the Comparative Example being described in the right side of the compound of the above described Example 180) was added to the high concentration K+ solution as the test substance to measure the change in tension. The test substance was dissolved in dimethyl sulfoxide at a predetermined concentration and added to the high concentration K+ solution in such a manner that the final concentration came to […]. Further, the final concentration of dimethyl sulfoxide added was made 0.3% or less. The change in tension was led to a strain pressure amplifier (“AP-621G3”, manufactured by Nippon Koden Kogyo) through a FD pickup transducer (“TB-611T”, manufactured by Nippon Koden Kogyo) and recorded on a recorder (“R-64V”, manufactured by Rika Electric). When the tension before replacement with the high concentration K+ solution was regarded as 0% and the last tension which was generated by the high concentration K+ solution before the addition of a test substance was regarded as 100%, the contraction force of the tracheal smooth muscle two hours after addition of a test substance was shown as relative percentage. […]

A further data set concerns Sprague-Dawley line rats. Briefly: Toxicity study of two-week repeated-dose oral administration with rats. It is filed as in vivo. The settings on record: male, oral, 0, 125 and 500 mg/kg/day repeatedly for two weeks. Here is the method:
In order to study the toxicity by repeated-dose administration of compounds, the compounds were dosed orally to Sprague-Dawley line rats (three male rats per group) with 0, 125 and 500 mg/kg/day (a 0.5 w/v % CMC-Na solution) repeatedly for two weeks.

Where [5] appears, read: 24 hours after antigen challenge, average.

Regarding `C[C@@H]1C[C@H]2[C@@H]3CCC4=CC(=O)C=C[C@]4(C)[C@@]3(F)[C@@H](O)C[C@]2(C)[C@@]1(O)C(=O)CO` [dexamethasone, Dexamethasone], the PC100ACh in data set [1] is given as 1.14 mg/mL.
As to `CSc1ccc2c(c1)CC(=O)c1c(O)cc(O)cc1S2` [Example 1, 2-Methylthio-7,9-dihydroxy-10,11-dihydrodibenzo[b,f]thiepin-10-one], the “IAR (% change in sRaw) inhibited by, compared to the control group” value in data set [2] was found to be 70%. Moreover, the “LAR (AUC) inhibited by, compared to the control group” value in data set [2] (AUC from 4 hours to 8 hours) is 77%. In data set [3], the “change in number of eosinophils compared to the control group” value is reported as “tendency”, the “change in number of lymphocytes compared to the control group” value is “tendency”, the “change in number of neutrophils compared to the control group” value is “tendency” and the “change in total number of cells compared to the control group” value is on record as “significant decrease”. Also, in data set [3] (setting [5]), the “number of cells of eosinophils in bronchoalveolar lavage fluid” value turned out to be 810 µL⁻¹, the “number of cells of lymphocytes in bronchoalveolar lavage fluid” value amounted to 21 µL⁻¹, the “number of cells of macrophages in bronchoalveolar lavage fluid” value is given as 1,872 /μL and the “number of cells of neutrophils in bronchoalveolar lavage fluid” value was 1,072 /μL. Also, in data set [3] (setting [5]), the “total number of cells in bronchoalveolar lavage fluid” value is 3,775 /μL. In addition, the activity at 10 µM in data set [4] was found to be 0%. Moreover, the “Results (toxicity findings)” value in the data set on Sprague-Dawley line rats is “No abnormalities were recognized”.
